Bridge positions count the residues as written; N and C are the ends. Square brackets hold non-standard residues; d marks the D form. Ends that are not written are not given here. Peptide text beside a SMILES is read from it. * marks the point of attachment. ξ: configuration not given here. X1 = CC(C)CCC[C@@H](C)[C@H]1CC[C@H]2[C@@H]3CC=C4C[C@@H](OC(=O)CCOCCOCCOCCOCCOCCOCCOCCOCCOCCOCCOCCOCCNC(=O)CSCCC(=O)*)CC[C@]4(C)[C@H]3CC[C@]12C; MCA = alpha-methylhydrocinnamic acid (2-methyl-3-phenylpropanoic acid); Abu(4-SO3H) = N[C@@H](CCS(=O)(=O)O)C(=O)O; Palmitoyl = CCCCCCCCCCCCCCCC(=O)*; PhLac = O=C(O)[C@@H](O)Cc1ccccc1; ξPhLac = O=C(O)C(O)Cc1ccccc1
How the values were obtained:
[1] = molecular target: GLP-1 Receptor (Homo sapiens, UniProt P43220); assay: Functional assay, cAMP induction (luciferase reporter, HEK293) at GLP-1 receptor; type: cell-based; conditions: for EC50: GLP-1 agonism EC50 (nM)
[2] = molecular target: Glucagon Receptor (Homo sapiens, UniProt P47871); assay: cAMP inhibition: antagonism of glucagon-induced cAMP at glucagon receptor; type: cell-based; parameters: expressed in transfected cells; host or cells: HEK293
Sequence of Glucagon Receptor (P47871 26-477): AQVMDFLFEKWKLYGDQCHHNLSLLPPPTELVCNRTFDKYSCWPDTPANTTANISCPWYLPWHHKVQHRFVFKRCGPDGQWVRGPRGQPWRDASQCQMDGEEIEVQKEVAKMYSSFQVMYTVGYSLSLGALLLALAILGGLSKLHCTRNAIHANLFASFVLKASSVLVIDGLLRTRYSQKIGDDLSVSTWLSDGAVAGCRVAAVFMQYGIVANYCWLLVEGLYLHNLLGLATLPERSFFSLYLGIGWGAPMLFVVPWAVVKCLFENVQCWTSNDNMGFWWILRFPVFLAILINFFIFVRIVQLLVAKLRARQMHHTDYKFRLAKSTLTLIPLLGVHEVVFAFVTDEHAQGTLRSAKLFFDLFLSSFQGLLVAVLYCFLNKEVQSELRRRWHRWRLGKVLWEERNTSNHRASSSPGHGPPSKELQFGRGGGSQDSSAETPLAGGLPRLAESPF

Sequence of GLP-1 Receptor (P43220 24-463): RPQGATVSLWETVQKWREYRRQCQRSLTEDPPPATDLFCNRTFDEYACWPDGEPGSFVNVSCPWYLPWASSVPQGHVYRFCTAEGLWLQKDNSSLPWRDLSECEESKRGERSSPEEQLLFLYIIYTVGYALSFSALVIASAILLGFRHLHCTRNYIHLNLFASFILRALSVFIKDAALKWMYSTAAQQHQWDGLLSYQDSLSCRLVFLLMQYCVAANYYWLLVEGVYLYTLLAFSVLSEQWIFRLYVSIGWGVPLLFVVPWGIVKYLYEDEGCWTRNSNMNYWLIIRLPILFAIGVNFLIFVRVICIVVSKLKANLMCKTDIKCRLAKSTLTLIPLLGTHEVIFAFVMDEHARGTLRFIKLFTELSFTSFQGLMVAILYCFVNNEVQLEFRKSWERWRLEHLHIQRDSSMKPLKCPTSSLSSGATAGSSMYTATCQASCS

CCCCCCCCCCCCCCCC(=O)O[C@@H](Cc1ccccc1)C(=O)N[C@H](C(=O)N[C@@H](CO)C(=O)N[C@@H](CC(=O)O)C(=O)N[C@@H](Cc1ccc(O)cc1)C(=O)N[C@@H](CO)C(=O)N[C@@H](CCCCN)C(=O)N[C@@H](Cc1ccc(O)cc1)C(=O)N[C@@H](CC(C)C)C(=O)N[C@@H](CC(=O)O)C(=O)N[C@H]1CCC(=O)NCCCC[C@@H](C(=O)N[C@@H](CC(=O)O)C(=O)N[C@@H](Cc2ccccc2)C(=O)N[C@H](C(=O)N[C@@H](CCC(N)=O)C(=O)N[C@@H](Cc2c[nH]c3ccccc23)C(=O)N[C@@H](CC(C)C)C(=O)N[C@@H](CCSC)C(=O)N[C@@H](CC(=O)O)C(=O)N[C@H](C(N)=O)[C@@H](C)O)C(C)C)NC(=O)[C@H](C)NC(=O)[C@H](CCCNC(=N)N)NC(=O)[C@H](CCCNC(=N)N)NC1=O)[C@@H](C)O [[C16FA-O-PLA6, E16K20(lactam),D28]G(6-29)] (Palmitoyl-[PhLac]TSDYSKYLDERRAKDFVQWLMDT-NH2; lactam 11-15)
EC50 ([1]; Table 22): 45.7 ± 13.8 nM

CC[C@H](C)[C@H](NC(=O)[C@H](Cc1ccccc1)NC(=O)[C@H](CC(=O)O)NC(=O)[C@H](CCCCN)NC(=O)[C@H](C)NC(=O)[C@H](C)NC(=O)[C@H](CCC(N)=O)NC(=O)[C@@H]1CCC(=O)NCCCC[C@H](NC(=O)[C@H](CO)NC(=O)[C@H](Cc2ccc(O)cc2)NC(=O)[C@H](CC(=O)O)NC(=O)[C@H](CO)NC(=O)[C@@H](NC(=O)C(O)Cc2ccccc2)[C@@H](C)O)C(=O)N[C@@H](Cc2ccc(O)cc2)C(=O)N[C@@H](CC(C)C)C(=O)N[C@@H](CC(=O)O)C(=O)N1)C(=O)N[C@@H](C)C(=O)N[C@@H](Cc1c[nH]c2ccccc12)C(=O)N[C@@H](CC(C)C)C(=O)N[C@@H](CCSC)C(=O)N[C@@H](CC(=O)O)C(=O)N[C@H](C(N)=O)[C@@H](C)O (stereo partly drawn) [[PLA6, K12E16(lactam), GLP(23-32)]G(6-29)] (H-[ξPhLac]TSDYSKYLDEQAAKDFIAWLMDT-NH2; lactam 7-11)
GLP-1 agonism EC50(nM) ([1]; Table 18): No agonism

CSCC[C@H](NC(=O)[C@H](CC(C)C)NC(=O)[C@H](Cc1c[nH]c2ccccc12)NC(=O)[C@H](CCC(N)=O)NC(=O)[C@@H](NC(=O)[C@H](Cc1ccccc1)NC(=O)[C@H](CC(=O)O)NC(=O)[C@@H]1CCCCNC(=O)CC[C@H](NC(=O)[C@H](CC(=O)O)NC(=O)[C@H](CC(C)C)NC(=O)[C@H](Cc2ccc(O)cc2)NC(=O)[C@H](CCCCN)NC(=O)[C@H](CO)NC(=O)[C@H](Cc2ccc(O)cc2)NC(=O)[C@H](CC(=O)O)NC(=O)[C@H](CO)NC(=O)[C@@H](NC(=O)[C@H](Cc2ccccc2)OC(=O)[C@@H](NC(=O)CNC(=O)[C@H](CCC(=O)O)NC(=O)[C@H](C)N)[C@@H](C)O)[C@@H](C)O)C(=O)N[C@@H](CCCNC(=N)N)C(=O)N[C@@H](CCCNC(=N)N)C(=O)N[C@@H](C)C(=O)N1)C(C)C)C(=O)N[C@@H](CC(=O)O)C(=O)N[C@H](C(N)=O)[C@@H](C)O [[A2E3-O-PLA6, D9, E16K20(Lactam), D28] G(2-29)] (H-AEGT[PhLac]TSDYSKYLDERRAKDFVQWLMDT-NH2; lactam 15-19; N-terminus assumed)
EC50 ([1]; Table 24): 18 ± 2.14 nM

CSCC[C@@H]1NC(=O)[C@H](CC(C)C)NC(=O)[C@H](Cc2c[nH]c3ccccc23)NC(=O)[C@@H](NC(=O)[C@@H](NC(=O)[C@H](Cc2ccccc2)NC(=O)[C@H](CC(=O)O)NC(=O)[C@H](CCC(N)=O)NC(=O)[C@H](C)NC(=O)[C@H](CCCNC(=N)N)NC(=O)[C@H](CCCNC(=N)N)NC(=O)[C@H](CCC(=O)O)NC(=O)[C@H](CC(=O)O)NC(=O)[C@H](CC(C)C)NC(=O)[C@H](Cc2ccc(O)cc2)NC(=O)[C@H](CCCCN)NC(=O)[C@H](CO)NC(=O)[C@H](Cc2ccc(O)cc2)NC(=O)[C@H](CC(=O)O)NC(=O)[C@H](CO)NC(=O)[C@@H](NC(=O)[C@@H](O)Cc2ccccc2)[C@@H](C)O)C(C)C)CCC(=O)NCCCC[C@@H](C(=O)N[C@H](C(N)=O)[C@@H](C)O)NC1=O (H-[PhLac]TSDYSKYLDERRAQDFVEWLMKT-NH2; lactam 19-23)
EC50 ([1]; Table 17): 289 ± 149 nM

[MCA^6, E^9, C^24(20kDaPEG)]Glucagon(aa6-29)-NH2 ([MCA]TSEYSKYLDSRRAQDFVC(PEG 20 kDa)WLMNT-NH2)
IC50 (nM) (cAMP, inhibit 0.2 mM Glucagon) ([2]; Table 12): no antagonism

FTSDYSKYLDSRRAQDFVQWLMNT-NH2 [Glucagon(aa6-29)-NH2]
cAMP pA2 ([2]; Table 9): 6.94 ± 0.63

CSCC[C@H](NC(=O)[C@H](CC(C)C)NC(=O)[C@H](Cc1c[nH]c2ccccc12)NC(=O)[C@H](CCC(N)=O)NC(=O)[C@@H](NC(=O)[C@H](Cc1ccccc1)NC(=O)[C@H](CC(=O)O)NC(=O)[C@@H]1CCCCNC(=O)CC[C@H](NC(=O)[C@H](CC(=O)O)NC(=O)[C@H](CC(C)C)NC(=O)[C@H](Cc2ccc(O)cc2)NC(=O)[C@H](CCCCN)NC(=O)[C@H](CO)NC(=O)[C@H](Cc2ccc(O)cc2)NC(=O)[C@H](CCC(=O)O)NC(=O)[C@H](CO)NC(=O)[C@@H](NC(=O)[C@H](Cc2ccccc2)NC(=O)[C@@H](NC(=O)CNC(=O)[C@H](CCC(=O)O)NC(=O)[C@H](C)N)[C@@H](C)O)[C@@H](C)O)C(=O)N[C@@H](CCCNC(=N)N)C(=O)N[C@@H](CCCNC(=N)N)C(=O)N[C@@H](C)C(=O)N1)C(C)C)C(=O)N[C@@H](CC(=O)O)C(=O)N[C@H](C(N)=O)[C@@H](C)O [[A2E3, E16K20(Lactam),D28]G(2 ~ 29)]
IC50 ([2]; Glucagon antagonism IC50 (nM, inhibit 0.2-0.8 nM glucagon), Table 18): 63.2 ± 2.3 nM

CSCC[C@H](NC(=O)[C@H](CC(C)C)NC(=O)[C@H](Cc1c[nH]c2ccccc12)NC(=O)[C@H](CCC(N)=O)NC(=O)[C@@H](NC(=O)[C@H](Cc1ccccc1)NC(=O)[C@H](CC(=O)O)NC(=O)[C@@H]1CCCCNC(=O)CC[C@H](NC(=O)[C@H](CC(=O)O)NC(=O)[C@H](CC(C)C)NC(=O)[C@H](Cc2ccc(O)cc2)NC(=O)[C@H](CCCCN)NC(=O)[C@H](CO)NC(=O)[C@H](CCCCNC(=O)CCSCC(=O)NCCOCCOCCOCCOCCOCCOCCOCCOCCOCCOCCOCCOCCC(=O)O[C@H]2CC[C@@]3(C)C(=CC[C@H]4[C@@H]5CC[C@H]([C@H](C)CCCC(C)C)[C@@]5(C)CC[C@@H]43)C2)NC(=O)[C@H](CC(=O)O)NC(=O)[C@H](CO)NC(=O)[C@@H](NC(=O)[C@@H](O)Cc2ccccc2)[C@@H](C)O)C(=O)N[C@@H](CCCNC(=N)N)C(=O)N[C@@H](CCCNC(=N)N)C(=O)N[C@@H](C)C(=O)N1)C(C)C)C(=O)N[C@@H](CC(=O)O)C(=O)N[C@H](C(N)=O)[C@@H](C)O [K10-chol G(6-29), [PLA6, K10(COCH2CH2S-Chol), E16K20(lactam), D28]G(6-29) amide] (H-[PhLac]TSDK(X1)SKYLDERRAKDFVQWLMDT-NH2; lactam 11-15)
EC50 ([1]; Table 23, standard deviation in ( )): 35.3 nM

CC(C)C[C@H](NC(=O)[C@H](Cc1ccc(O)cc1)NC(=O)[C@H](CCCCN)NC(=O)[C@H](CO)NC(=O)[C@H](Cc1ccc(O)cc1)NC(=O)[C@H](CCS(=O)(=O)O)NC(=O)[C@H](CO)NC(=O)[C@@H](NC(=O)[C@@H](NC(=O)CNC(=O)[C@H](CCC(N)=O)NC(=O)[C@@H](N)CO)[C@@H](C)O)[C@@H](C)O)C(=O)N[C@@H](CC(=O)O)C(=O)N[C@@H](CO)C(=O)N[C@@H](CCCNC(=N)N)C(=O)N[C@@H](CCCNC(=N)N)C(=O)N[C@@H](C)C(=O)N[C@@H](CCC(N)=O)C(=O)N[C@@H](CC(=O)O)C(=O)N[C@@H](Cc1ccccc1)C(=O)N[C@H](C(=O)N[C@@H](CCC(N)=O)C(=O)N[C@@H](Cc1ccccc1)C(=O)N[C@@H](CC(C)C)C(=O)N[C@@H](CC(C)C)C(=O)N[C@@H](CC(N)=O)C(=O)N[C@H](C(N)=O)[C@@H](C)O)C(C)C [[desHis^1, desPhe^6, hCys^9(SO3−), Phe^25, Leu^27] Glucagon-NH2] (H-SQGTTS[Abu(4-SO3H)]YSKYLDSRRAQDFVQFLLNT-NH2; N-terminus assumed)
glucagon antagonism, in words [2]: some level of antagonism

Reference: patent publication US8980830B2 (priority 2007, dated 2015)
